Assay results taken from ChEMBL document CHEMBL1131751, “Design and synthesis of 2-[4-[4-(m-(ethylsulfonamido)-phenyl) piperazin-1-yl]butyl]-1,3-dioxoperhydropyrrolo[1,2-c]imidazole (EF-7412) using neural networks. A selective derivative with mixed 5-HT1A/D2 antagonist properties” (Bioorg Med Chem Lett, 1999).

Legend:
[1] = target: T1, Alpha-1 adrenergic receptor (Mus musculus, UniProt P97714+P97717+P97718); experiment: Binding affinity towards Alpha-1 adrenergic receptor; format: protein assay
T1 sequence (P97714 whole entry): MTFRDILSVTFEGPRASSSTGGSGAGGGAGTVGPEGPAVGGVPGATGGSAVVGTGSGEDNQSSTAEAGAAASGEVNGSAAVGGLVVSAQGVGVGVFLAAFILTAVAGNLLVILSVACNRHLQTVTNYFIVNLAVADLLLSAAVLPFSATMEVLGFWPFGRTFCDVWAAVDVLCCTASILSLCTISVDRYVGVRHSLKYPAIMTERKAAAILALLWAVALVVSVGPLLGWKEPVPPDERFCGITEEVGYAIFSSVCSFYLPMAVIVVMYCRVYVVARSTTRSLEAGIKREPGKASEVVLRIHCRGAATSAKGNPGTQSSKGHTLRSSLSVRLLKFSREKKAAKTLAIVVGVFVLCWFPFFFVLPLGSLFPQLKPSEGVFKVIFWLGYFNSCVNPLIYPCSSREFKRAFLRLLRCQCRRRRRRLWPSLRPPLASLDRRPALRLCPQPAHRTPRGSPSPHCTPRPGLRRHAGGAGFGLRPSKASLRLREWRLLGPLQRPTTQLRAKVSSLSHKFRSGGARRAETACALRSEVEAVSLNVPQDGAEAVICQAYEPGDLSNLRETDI
T1 sequence (P97717 whole entry): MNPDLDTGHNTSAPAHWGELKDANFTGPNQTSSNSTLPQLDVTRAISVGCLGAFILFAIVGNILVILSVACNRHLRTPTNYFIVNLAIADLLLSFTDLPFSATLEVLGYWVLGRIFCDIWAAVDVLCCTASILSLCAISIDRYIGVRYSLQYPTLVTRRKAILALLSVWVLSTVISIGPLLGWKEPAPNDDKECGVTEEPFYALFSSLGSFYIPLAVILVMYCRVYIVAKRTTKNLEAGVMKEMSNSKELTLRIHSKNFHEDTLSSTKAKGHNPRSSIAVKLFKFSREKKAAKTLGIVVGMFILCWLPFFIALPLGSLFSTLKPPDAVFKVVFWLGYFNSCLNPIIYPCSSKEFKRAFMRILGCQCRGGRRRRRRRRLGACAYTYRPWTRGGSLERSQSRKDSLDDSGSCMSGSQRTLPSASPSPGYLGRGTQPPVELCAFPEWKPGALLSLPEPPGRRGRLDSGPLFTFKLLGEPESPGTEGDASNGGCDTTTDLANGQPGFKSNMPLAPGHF
T1 sequence (P97718 whole entry): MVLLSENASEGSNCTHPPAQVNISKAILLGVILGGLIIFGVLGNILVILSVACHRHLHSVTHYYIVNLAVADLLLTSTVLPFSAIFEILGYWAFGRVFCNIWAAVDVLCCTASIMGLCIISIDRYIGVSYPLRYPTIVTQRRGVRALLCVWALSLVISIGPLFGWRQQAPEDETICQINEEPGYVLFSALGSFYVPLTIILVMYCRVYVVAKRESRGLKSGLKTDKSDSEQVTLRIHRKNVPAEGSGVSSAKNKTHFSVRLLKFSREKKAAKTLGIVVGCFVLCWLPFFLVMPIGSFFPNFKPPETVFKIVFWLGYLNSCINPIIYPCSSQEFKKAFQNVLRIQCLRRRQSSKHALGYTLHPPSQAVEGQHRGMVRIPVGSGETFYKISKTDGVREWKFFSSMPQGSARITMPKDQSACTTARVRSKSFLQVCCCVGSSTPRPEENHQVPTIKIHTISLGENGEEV

[2] = target: T2, 5-hydroxytryptamine receptor 1A (Mus musculus, UniProt Q64264); experiment: Binding affinity towards 5-HT1A receptor
T2 sequence (Q64264 whole entry): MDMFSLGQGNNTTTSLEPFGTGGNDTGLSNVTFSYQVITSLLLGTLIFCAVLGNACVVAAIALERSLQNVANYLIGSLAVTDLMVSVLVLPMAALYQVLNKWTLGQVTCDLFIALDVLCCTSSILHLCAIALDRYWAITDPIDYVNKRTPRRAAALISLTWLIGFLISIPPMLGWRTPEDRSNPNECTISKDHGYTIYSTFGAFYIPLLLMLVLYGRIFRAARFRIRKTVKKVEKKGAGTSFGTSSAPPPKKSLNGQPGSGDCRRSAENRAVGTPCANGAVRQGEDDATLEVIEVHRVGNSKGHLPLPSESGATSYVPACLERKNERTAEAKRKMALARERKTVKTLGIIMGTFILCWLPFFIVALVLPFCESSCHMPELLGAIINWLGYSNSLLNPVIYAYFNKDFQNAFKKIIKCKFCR

D(2) dopamine receptor = D(2) dopamine receptor (Mus musculus, UniProt P61168); experiment: Binding affinity towards Dopamine receptor D2
Sequence of D(2) dopamine receptor (P61168 whole entry): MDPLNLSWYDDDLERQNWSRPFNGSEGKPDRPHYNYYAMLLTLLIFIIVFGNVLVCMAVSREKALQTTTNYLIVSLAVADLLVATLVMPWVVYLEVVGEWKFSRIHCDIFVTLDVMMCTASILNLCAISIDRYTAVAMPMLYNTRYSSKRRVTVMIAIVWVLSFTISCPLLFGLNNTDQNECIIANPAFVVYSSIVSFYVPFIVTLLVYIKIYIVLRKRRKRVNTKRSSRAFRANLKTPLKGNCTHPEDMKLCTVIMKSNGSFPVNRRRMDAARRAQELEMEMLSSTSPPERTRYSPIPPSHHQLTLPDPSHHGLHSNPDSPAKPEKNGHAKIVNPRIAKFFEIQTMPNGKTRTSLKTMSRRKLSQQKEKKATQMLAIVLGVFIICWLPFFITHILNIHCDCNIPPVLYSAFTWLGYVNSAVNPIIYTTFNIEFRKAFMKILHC

Ki [1]: > 1000 nM
Ki [2]: 27 nM
Ki (D(2) dopamine receptor): 22 nM
Compound: CCS(=O)(=O)Nc1cccc(N2CCN(CCCCN3C(=O)C4CCCN4C3=O)CC2)c1 (stereo not drawn)
